In ChEMBL document CHEMBL5226302, “Small-Molecule Inhibitors Targeting the Canonical WNT Signaling Pathway for the Treatment of Cancer” (J Med Chem, 2021):

Assays:
Catenin beta-1 [1] = target: T1, Catenin beta-1 (Homo sapiens, UniProt P35222)
T1 sequence (P35222 whole entry): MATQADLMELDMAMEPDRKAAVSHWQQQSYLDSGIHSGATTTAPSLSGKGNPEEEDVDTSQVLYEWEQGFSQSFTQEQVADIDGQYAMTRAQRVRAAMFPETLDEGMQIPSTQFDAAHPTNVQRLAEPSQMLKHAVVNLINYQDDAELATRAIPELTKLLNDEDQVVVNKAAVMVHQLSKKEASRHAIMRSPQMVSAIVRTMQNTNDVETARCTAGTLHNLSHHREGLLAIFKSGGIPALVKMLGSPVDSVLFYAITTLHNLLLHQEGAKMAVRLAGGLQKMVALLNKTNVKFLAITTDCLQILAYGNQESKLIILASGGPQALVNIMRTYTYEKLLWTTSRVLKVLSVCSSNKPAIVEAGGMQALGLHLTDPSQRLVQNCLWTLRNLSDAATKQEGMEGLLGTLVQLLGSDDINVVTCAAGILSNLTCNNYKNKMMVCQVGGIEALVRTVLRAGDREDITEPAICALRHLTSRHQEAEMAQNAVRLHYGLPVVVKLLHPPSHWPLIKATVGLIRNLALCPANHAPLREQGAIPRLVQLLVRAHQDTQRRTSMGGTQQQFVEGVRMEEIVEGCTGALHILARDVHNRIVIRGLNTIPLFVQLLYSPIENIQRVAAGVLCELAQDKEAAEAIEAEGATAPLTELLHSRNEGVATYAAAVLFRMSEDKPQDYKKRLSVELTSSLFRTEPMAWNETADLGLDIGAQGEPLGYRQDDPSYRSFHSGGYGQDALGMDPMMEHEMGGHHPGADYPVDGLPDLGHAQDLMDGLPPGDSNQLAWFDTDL

Catenin beta-1 [2] = target: T1, Catenin beta-1; test: Binding affinity to beta catenin (unknown origin) assessed as dissociation constant by VP-ITC method
[3] = target: Catenin beta-1/Transcription factor 7 (Homo sapiens, UniProt P35222+P36402); test: Inhibition of beta catenin/TCF (unknown origin) by immunoprecipitation method; format: protein assay
LNCaP C4-2B = test: Antiproliferative activity against human LNCaP C4-2B cells assessed as inhibition of cell growth by Celltiter-Glo assay; format: functional, cell-based
COLO 320 = test: Antiproliferative activity against human COLO 320 assessed as growth inhibition measured after 24 hrs; format: functional
MCF7 = test: Antiproliferative activity against human MCF7 cells by MTT assay; format: functional, cell-based
HEK293 [4] = test: Antitumor activity against human HEK293 cells in CB17-SCID xenografted mouse model at 300 mg/kg relative to control; format: functional
HEK293 [5] = test: Antitumor activity against human HEK293 cells in CB17-SCID xenografted mouse model at 150 mg/kg relative to control; format: functional
[6] = Inhibition of beta catenin/APC (unknown origin); design: species or system Homo sapiens
[7] = Inhibition of Wnt2 signalling in human SW480 cells assessed as reduction in cyclin D1 expression […] measured after 24 hrs by western blot analysis; format: cell-based; details: SW480, 24 h
[8] = Antiproliferative activity against human SW403 cells assessed as reduction in cell viability; format: functional, cell-based; details: SW-403
HCT-116 = test: Antiproliferative activity against human HCT-116 cells assessed as reduction in cell viability; format: functional, cell-based
HT-29 = test: Antiproliferative activity against human HT-29 cells assessed as reduction in cell viability; format: functional, cell-based
[9] = Binding affinity to Wnt/beta catenin (unknown origin) assessed as inhibition constant; design: species or system Homo sapiens

Catenin beta-1/Transcription factor 7, sequence (P36402 whole entry, one chain of several): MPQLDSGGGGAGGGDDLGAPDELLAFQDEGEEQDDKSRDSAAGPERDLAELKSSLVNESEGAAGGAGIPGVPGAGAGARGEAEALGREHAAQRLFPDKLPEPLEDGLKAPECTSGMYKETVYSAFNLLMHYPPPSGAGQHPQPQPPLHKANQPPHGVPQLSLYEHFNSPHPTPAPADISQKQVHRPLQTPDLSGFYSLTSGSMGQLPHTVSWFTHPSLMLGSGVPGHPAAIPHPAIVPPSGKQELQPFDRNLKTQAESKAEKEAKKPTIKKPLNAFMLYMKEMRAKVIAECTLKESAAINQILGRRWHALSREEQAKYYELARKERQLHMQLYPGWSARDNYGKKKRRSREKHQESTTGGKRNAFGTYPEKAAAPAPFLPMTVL

On1ncc2cc(CCc3nn[nH]n3)ccc21
IC50 (Catenin beta-1 [1]): 500 nM

CC[C@H](C)[C@H]1NC(=O)[C@](C)(NC(=O)[C@H](CCC(N)=O)NC(=O)[C@@H]2CCCN2C(=O)[C@H](CC(N)=O)NC(=O)[C@H](CCC(=O)O)NC(=O)CCNC(=S)Nc2ccc3c(c2)C(=O)OC32c3ccc(O)cc3Oc3cc(O)ccc32)CCC/C=C/CCC[C@](C)(C(=O)N[C@@H](Cc2cnc[nH]2)C(=O)N[C@H](C(=O)N[C@@H](CCC(N)=O)C(=O)N[C@@H](CCCNC(=N)N)C(=O)N[C@H](C(=O)N[C@@H](CCSC)C(N)=O)C(C)C)C(C)C)NC(=O)[C@H](CC(=O)O)NC(=O)[C@H](C(C)(C)C)NC1=O
Kd (Catenin beta-1 [2]): 60 nM

COc1ccc([C@@H](C)N2CC(=O)N[C@H](C)C(=O)CN(CCc3ccccc3Oc3ccccc3)CC(=O)N(c3cc(OC)cc(OC)c3)CC(=O)N(CCCOC(C)C)CC(=O)N([C@H](C)c3ccc(OC)cc3)CC2=O)cc1
IC50 [3]: 10000 nM | IC50 (LNCaP C4-2B): 195 nM

C[C@@H]1CN(c2cc(F)c3c(c2)N(C)C(=O)C32CCN(c3nc4c(c(=O)[nH]3)CCCN4C)CC2)C[C@H](C)O1
GI50 (COLO 320): 230 nM

Cc1cccc2c(=O)[nH]c3c(c12)COC(C(C)(C)CO)C3 (centres undefined)
EC50 (MCF7): 7 nM

COc1ccc(-n2c(SCc3nc(-c4ccc(C)cc4)no3)nnc2-c2ccncc2)cc1
Activity (HEK293 [4]): 35% | Activity (HEK293 [5]): 33%

CCOC(=O)CC[C@H](NC(=O)[C@H](CC(=O)OCC)NC(=O)[C@H](Cc1ccc2ccccc2c1)NC(=O)Cc1cc2cc(Cl)ccc2[nH]1)C(=O)OC
IC50 [6]: 28700 nM | IC50 [7]: 10800 nM

CN(c1ccc(C(F)(F)F)cc1)S(=O)(=O)c1ccc(C(=O)Nc2nc(-c3ccccn3)cs2)cc1
EC50 [8]: 123 nM | EC50 (HCT-116): 123 nM | EC50 (HT-29): 132 nM

COc1ccc(-c2c(C(=O)OCCOCCOCCOCCN)c3c4ccccc4oc(=O)c3n2C)cc1
Ki [9]: 1200 nM
